Results reported in patent US20050154537A1, “Methods, program products, and systems for single and multi-agent dosing and other related methods” (priority 2003, published 2005).

Assays:
Assay type in all cases: in vivo
Settings in all cases: days elapsed between current dose and marker
Platelets = assay: Lookup table: marker validity (nadir) window, Platelets
Description: (§1) A lookup table has been constructed (see above example), in the form of a table, to represent the relationship of each trial Agent and its qualified Clinical Markers. This table includes information regarding the Maximum Dose and the Inverse Marker Applicability for each Agent. The gray cells on the Cycle Dose Modifier indicate these values.
(§2) The table also includes information regarding the nadir of applicability for each Agent—Marker combination. The range, in days and indicated as the Lower Limit and Upper limit, has been determined by calculating a percentage (20%) above and below the true nadir value when only a single value is known. Otherwise, the upper and lower nadir values are used. […] The values of Upper and Lower limits is shown as a property of the Association between Markers and Agents. The Relevancy of a Marker can be computed using the lookup table by comparing the number of days elapsed between the date of the application of the current dose and the date on which the Marker was taken to the upper and lower values for that Agent Marker Association. If the elapsed days are greater than or equal to the lower limit and less than or equal to the upper limit, then the calculations provided by the Cycle Dose Modifier are said to be relevant and thereby applicable as indicated in the yellow Marker Validity cell. The Relevancy of Cycle Dose Modifier Calculations for Agent 1 is based on the Validity of Marker for Agent 1 calculated by: =IF(and((($B13−B6)>=VLOOKUP(B$3,Validity!$A$3:$K$8,10)),((B$13−B6)<=VLOOKUP(B$3,Validity!$A$3:$K$8,11))),“valid”,“invalid”)

Neutrophil Count (ANC) = assay: Lookup table: marker validity (nadir) window, Neutrophil Count (ANC)
Description: as §1, §2

Hemoglobin (Hgb) = assay: Lookup table: marker validity (nadir) window, Hemoglobin (Hgb)
Description: as §1, §2

Platelets LL (Platelets; lower limit of nadir range): 8 days
Platelets UL (Platelets; upper limit of nadir range): 11 days
Neutrophil Count (ANC) LL (Neutrophil Count (ANC); lower limit of nadir range): 8 days
Neutrophil Count (ANC) UL (Neutrophil Count (ANC); upper limit of nadir range): 11 days
Hemoglobin (Hgb) LL (Hemoglobin (Hgb); lower limit of nadir range): 8 days
Hemoglobin (Hgb) UL (Hemoglobin (Hgb); upper limit of nadir range): 11 days
Structure (SMILES): CC(=O)O[C@H]1C(=O)[C@@]2(C)[C@H]([C@H](OC(=O)c3ccccc3)[C@]3(O)C[C@H](OC(=O)[C@H](O)[C@@H](NC(=O)c4ccccc4)c4ccccc4)C(C)=C1C3(C)C)[C@]1(OC(C)=O)CO[C@@H]1C[C@@H]2O [Taxol]
